Structures can show the parent of a compound that is named as a salt.
Experiments:
[1] = test system: tumor necrosis factor (α); test: Cytokine Induction in Human Cells: tumor necrosis factor (α) by ELISA; assay type: cell-based; conditions: PBMC; human PBMCs, incubated 18 to 24 hours, lowest concentration found to induce tumor necrosis factor
Excerpt: (§1) An in vitro human blood cell system was used to assess cytokine induction by compounds of the invention. Activity is based on the measurement of interferon and tumor necrosis factor (α) (IFN and TNF, respectively) secreted into culture media as described by Testerman et. al. In “Cytokine Induction by the Immunomodulators Imiquimod and S-27609”, Journal of Leukocyte Biology, 58, 365–372 (September, 1995).
(§2) Whole blood is collected by venipuncture into EDTA vacutainer tubes from healthy human donors. Peripheral blood mononuclear cells (PBMCs) are separated from whole blood by density gradient centrifugation using Histopaque®-1077 (Sigma Chemicals, St. Louis, Mo.). The PBMCs are suspended at 3–4×10^6 cells/mL in RPMI 1640 medium containing 10% fetal bovine serum, 2 mM L-glutamine and 1% penicillin/streptomycin solution (RPMI complete). The PBMC suspension is added to 48 well flat bottom sterile tissue culture plates (Costar, Cambridge, Mass. or Becton Dickinson Labware, Lincoln Park, N.J.) containing an equal volume of RPMI complete media containing test compound.
(§3) The compounds are solubilized in dimethyl sulfoxide (DMSO). The DMSO concentration should not exceed a final concentration of 1% for addition to the culture wells.
(§4) The solution of test compound is added at 60 μM to the first well containing RPMI complete and serial (three fold or ten fold) dilutions are made. The PBMC suspension is then added to the wells in an equal volume, bringing the test compound concentrations to the desired range. The final concentration of PBMC suspension is 1.5–2×10^6 cells/mL. The plates are covered with sterile plastic lids, mixed gently and then incubated for 18 to 24 hours at 37° C. in a 5% carbon dioxide atmosphere.
(§5) Following incubation the plates are centrifuged for 5–10 minutes at 1000 rpm (˜200×g) at 4° C. The cell culture supernatant is removed with a sterile polypropylene pipet and transferred to sterile polypropylene tubes. Samples are maintained at −30 to −70° C. until analysis. The samples are analyzed for interferon (α) and tumor necrosis factor (α) by ELISA
Tumor necrosis factor (α) (TNF) concentration is determined using ELISA kits available from Genzyme, Cambridge, Mass.; R&D Systems, Minneapolis, Minn.; or Pharmingen, San Diego, Calif.
(§6) The table below lists the lowest concentration found to induce interferon and the lowest concentration found to induce tumor necrosis factor for each compound.

interferon (α) = test: Cytokine Induction in Human Cells: interferon (α) by ELISA; assay type: cell-based; conditions: PBMC; human PBMCs, incubated 18 to 24 hours, lowest concentration found to induce interferon
Excerpt: as §1, §2, §3, §4, §5
Interferon (α) concentration is determined by ELISA using a Human Multi-Species kit from PBL Biomedical Laboratories, New Brunswick, N.J.
as §6

Compound | minimal effective concentration [1] | minimal effective concentration (interferon (α))
CCCCc1ccc(NC(=O)NCCCCn2cnc3c(N)nc4ccccc4c32)cc1 [Example 34] | > 30 µM | > 30 µM
COCCc1nc2c(N)nc3ccccc3c2n1CCCCNC(=O)Nc1ccc(C(F)(F)F)cc1 [Example 117] | 10 µM | 10 µM
Nc1nc2ccccc2c2c1ncn2CCCCNC(=O)Nc1ccccc1-c1ccccc1 [Example 45] | > 30 µM | 3.33 µM
CC(=O)c1ccc(NC(=O)NCCCCn2cnc3c(N)nc4ccccc4c32)cc1 [Example 51] | 30 µM | 30 µM
CCCCc1nc2c(N)nc3c(c2n1CCCCNC(=O)NS(=O)(=O)c1ccccc1)CCCC3 [Example 137] | 10 µM | 1 µM
CCCCc1nc2c(N)nc3ccccc3c2n1CCNC(=O)NCc1ccccc1 [Example 55] | 1 µM | 1 µM
COCCc1nc2c(N)nc3ccccc3c2n1CCCCNC(=O)NC12CC3CC(CC(C3)C1)C2 [Example 100] | 10 µM | 0.001 µM
COCCc1nc2c(N)nc3ccccc3c2n1CCCCNC(=O)Nc1cccc(F)c1 [Example 107] | 1 µM | 0.0001 µM
COCCc1nc2c(N)nc3c(c2n1CCCCNC(=O)Nc1ccccc1)CCCC3 [Example 136] | 1 µM | 0.0001 µM
Nc1nc2ccccc2c2c1ncn2CCCCNC(=O)NCCc1ccccc1 [Example 36] | 10 µM | 1.11 µM
COCCc1nc2c(N)nc3ccccc3c2n1CCCCNC(=O)OCc1ccccc1 [Example 142, N-{4-[4-Amino-2-(2-methoxyethyl)-1H-imidazo[4,5-c]quinolin-1-yl]butyl}carbamate Trifluoroacetate] | 0.1 µM | 0.0001 µM
COCCc1nc2c(N)nc3ccccc3c2n1CCCCNC(=S)Nc1cccnc1 [Example 125] | 10 µM | 0.0001 µM
Nc1nc2ccccc2c2c1ncn2CCCCNC(=O)NCc1ccccc1 [Example 35] | 10 µM | 1.11 µM
CCCCCNC(=O)NCCCCn1cnc2c(N)nc3ccccc3c21 [Example 30] | 30 µM | 3.33 µM
CCCCc1nc2c(N)nc3ccccc3c2n1CCCNC(=O)Nc1ccccc1 [Example 146, N-[3-(4-amino-2-butyl-1H-imidazo[4,5-c]quinolin-1-yl)propyl]-N′-phenylurea] | 0.12 µM | 0.01 µM
COCCc1nc2c(N)nc3ccccc3c2n1CCCNC(=O)Nc1ccccc1 [Example 161, N-{3-[4-amino-2-(2-methoxyethyl)-1H-imidazo[4,5-c]quinolin-1-yl]propyl}-N′-phenylurea] | 0.01 µM | 0.01 µM
CCCCc1nc2c(N)nc3ccccc3c2n1CCCCNC(=O)N[C@@H](C)c1ccccc1 [Example 82] | 0.1 µM | 0.01 µM
Cc1ccccc1NC(=O)NCCCCn1cnc2c(N)nc3ccccc3c21 [Example 48] | 3.33 µM | 0.37 µM
COCCc1nc2c(N)nc3ccccc3c2n1CCCCNC(=O)Nc1ccccc1Cl [Example 112] | 0.1 µM | 0.0001 µM
COCCc1nc2c(N)nc3ccccc3c2n1CCCCNC(=O)Nc1ccc([N+](=O)[O-])cc1 [Example 115] | 1 µM | 0.0001 µM
CSc1cccc(NC(=O)NCCCCn2cnc3c(N)nc4ccccc4c32)c1 [Example 49] | 3.33 µM | 3.33 µM
CCCCOC(=O)c1ccc(NC(=O)NCCCCn2cnc3c(N)nc4ccccc4c32)cc1 [Example 50] | > 30 µM | > 30 µM
